Source: US20220024900A1, “Compounds and Their Use for Reducing Uric Acid Levels” (Acquist LLC, priority 2016, published 2022)

Each compound was assayed against xanthine oxidase (Homo sapiens, UniProt P47989) (assay: Fluorescence-based xanthine oxidase activity assay). Conditions: verbal rating.
Chain of xanthine oxidase (P47989 whole entry, species assumed): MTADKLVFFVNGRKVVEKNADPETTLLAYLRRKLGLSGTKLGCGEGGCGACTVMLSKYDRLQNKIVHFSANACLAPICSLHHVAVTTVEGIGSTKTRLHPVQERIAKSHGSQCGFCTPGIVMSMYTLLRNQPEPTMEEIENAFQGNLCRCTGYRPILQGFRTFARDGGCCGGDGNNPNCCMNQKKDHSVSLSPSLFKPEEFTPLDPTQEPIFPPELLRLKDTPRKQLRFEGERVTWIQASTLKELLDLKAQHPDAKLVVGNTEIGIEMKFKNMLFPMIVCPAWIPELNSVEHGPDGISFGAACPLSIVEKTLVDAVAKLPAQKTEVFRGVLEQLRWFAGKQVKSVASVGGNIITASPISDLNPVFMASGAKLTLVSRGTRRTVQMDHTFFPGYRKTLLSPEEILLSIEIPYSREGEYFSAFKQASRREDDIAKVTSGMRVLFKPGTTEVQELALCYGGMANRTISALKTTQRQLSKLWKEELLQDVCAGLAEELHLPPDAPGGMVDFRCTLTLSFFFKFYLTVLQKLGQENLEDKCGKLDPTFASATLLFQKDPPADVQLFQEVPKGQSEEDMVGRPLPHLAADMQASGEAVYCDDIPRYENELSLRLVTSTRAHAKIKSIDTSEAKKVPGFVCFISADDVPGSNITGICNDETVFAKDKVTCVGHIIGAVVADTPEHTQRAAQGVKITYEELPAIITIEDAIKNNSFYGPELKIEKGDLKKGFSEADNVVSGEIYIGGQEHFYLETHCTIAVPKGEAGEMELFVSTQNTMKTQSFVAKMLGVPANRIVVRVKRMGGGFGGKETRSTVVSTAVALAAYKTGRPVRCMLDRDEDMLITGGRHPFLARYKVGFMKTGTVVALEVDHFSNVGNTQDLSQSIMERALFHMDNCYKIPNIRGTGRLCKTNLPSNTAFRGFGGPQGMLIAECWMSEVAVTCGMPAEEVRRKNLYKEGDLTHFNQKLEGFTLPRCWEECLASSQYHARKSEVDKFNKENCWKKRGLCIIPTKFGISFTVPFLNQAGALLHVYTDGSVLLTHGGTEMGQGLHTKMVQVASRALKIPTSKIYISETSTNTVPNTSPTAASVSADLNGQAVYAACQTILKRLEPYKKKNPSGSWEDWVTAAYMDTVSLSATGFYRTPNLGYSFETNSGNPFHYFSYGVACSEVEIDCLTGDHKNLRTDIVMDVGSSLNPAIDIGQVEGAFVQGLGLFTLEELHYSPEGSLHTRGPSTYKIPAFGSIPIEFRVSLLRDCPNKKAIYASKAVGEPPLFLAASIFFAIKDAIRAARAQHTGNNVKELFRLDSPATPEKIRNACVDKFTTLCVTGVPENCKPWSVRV
Type: biochemical
For `COc1nc(O)c(C(=O)Nc2ccc(-c3cnn[nH]3)cc2)c(=O)[nH]1` [Formula (IIb), N-(4-(3H-1,2,3-triazol-4-yl)phenyl)-4-hydroxy-2-methoxy-6-oxo-1,6-dihydropyrimidine-5-carboxamide], the “inhibition of xanthine oxidase compared to allopurinol” value (from here on “inhibition … compared to allopurinol”) was “particularly potent inhibitors”. With `CC(C)Sc1nc(O)c(C(=O)Nc2ccc(-c3c[nH]nn3)cc2)c(=O)[nH]1` [Formula (IId), N-(4-(1H-1,2,3-triazol-5-yl)phenyl)-4-hydroxy-2-(isopropylthio)-6-oxo-1,6-dihydropyrimidine-5-carboxamide] the “inhibition … compared to allopurinol” value was “particularly potent inhibitors”. In the case of `N=C(Nc1ccc(-c2cnn[nH]2)cc1)c1c(O)[nH]c(=O)[nH]c1=O` [Formula (Ia), N-(4-(1H-1,2,3-triazol-4-yl)phenyl)-6-hydroxy-2,4-dioxo-1,2,3,4-tetrahydropyrimidine-5-carboximidamide], the “inhibition … compared to allopurinol” value is reported as “particularly potent inhibitors”. In the case of `O=c1[nH]c(O)c(/C(=N\O)Nc2ccc(-c3cnn[nH]3)cc2)c(=O)[nH]1` [Formula (Ic), (E)-N-(4-(1H-1,2,3-triazol-5-yl)phenyl)-N′-hydroxy-2,4,6-trioxohexahydro-pyrimidine-5-carboximidamide], the “inhibition … compared to allopurinol” value is reported as “particularly potent inhibitors”. `Cn1c(O)c(C(=N)Nc2ccc(-c3cnn[nH]3)cc2)c(=O)n(C)c1=O` [Formula (If), N-(4-(1H-1,2,3-triazol-5-yl)phenyl)-6-hydroxy-1,3-dimethyl-2,4-dioxo-1,2,3,4-tetrahydropyrimidine-5-carboximidamide] was tested, and the “inhibition … compared to allopurinol” value was “particularly potent inhibitors”. `Cn1c(=O)[nH]c(O)c(C(=O)Nc2ccc(-c3cnn[nH]3)cc2)c1=O` [Formula (Ig), N-(4-(1H-1,2,3-triazol-4-yl)phenyl)-2,4-dihydroxy-1-methyl-6-oxo-1,6-dihydropyrimidine-5-carboxamide] was tested, and the “inhibition … compared to allopurinol” value was “particularly potent inhibitors”. In the case of `Cn1c(=O)[nH]c(O)c(C(=N)Nc2ccc(-c3cnn[nH]3)cc2)c1=O` [Formula (Ih)], the “inhibition … compared to allopurinol” value is reported as “particularly potent inhibitors”. With `Nc1[nH]c(=O)[nH]c(=O)c1C(=O)Nc1ccc(-c2c[nH]nn2)cc1` [Formula (Ik), N-(4-(1H-1,2,3-triazol-5-yl)phenyl)-6-amino-2,4-dioxo-1,2,3,4-tetrahydropyrimidine-5-carboxamide] the “inhibition … compared to allopurinol” value was “particularly potent inhibitors”. For `O=c1[nH]c(=O)c2c(Nc3ccc(-c4cnn[nH]4)cc3)noc2[nH]1` [Formula (VIa), 3-((4-(1H-1,2,3-triazol-5-yl)phenyl)amino)isoxazolo[5,4-d]pyrimidine-4,6(5H,7H)-dione], the “inhibition … compared to allopurinol” value was “particularly potent inhibitors”. In the case of `O=c1[nH]c(=O)c2c(Nc3ccc(-c4cnn[nH]4)cc3)n[nH]c2[nH]1` [Formula (VIb), 3-((4-(1H-1,2,3-triazol-5-yl)phenyl)amino)-1H-pyrazolo[3,4-d]pyrimidine-4,6(5H,7H)-dione], the “inhibition … compared to allopurinol” value is reported as “particularly potent inhibitors”.
